Test results from US8871796B2, “Diaryl ether derivatives as notch sparing gamma secretase inhibitors” (Merck Sharp & Dohme Corp., priority 2009, dated 2014).
Where two headings read alike, the source gives them in different places.

Experiment: APP processing: AlphaLisa assay of secreted Aβ40 and Aβ42 from SP4CT cells
Type: cell-based
Conditions: Homo sapiens, SH-SY5Y cells expressing amyloid β protein (SP4CT cells)
Protocol: APP Processing (Assay Quantitates Secreted Aβ Analytes from Cell Lines):
The effect of compounds on the abundance of Aβ40 and Aβ42 peptides generated from SH-SY5Y cells expressing amyloid β protein (SP4CT cells) are determined by an AlphaLisa™ assay. Analogous to an ELISA assay, generation of […] AlphaLisa™ assay requires “donor” and “acceptor” beads to be brought in close proximity by specific antibody recognition of either Aβ40 or Aβ42 peptides. The assay is accomplished by removing media from compound-treated SP4CT cells to two different microplates, followed by the addition of donor beads conjugated with streptavidin binding a biotinylated anti-amyloid β monocolonal antibody (clone 4G8). Acceptor beads directly conjugated with anti-Aβ40 monoclonal antibody (G210) are added to one microplate and anti-Aβ42 monoclonal antibody (12F4) acceptor beads were added to the other. Abundance of Aβ40 and Aβ42 is directly proportional to the luminescent signal generated following excitation of donor beads by laser light.

[1] = read-out: IC50, inhibition of production of Aβ40 peptide
[2] = read-out: IC50, inhibition of production of Aβ42 peptide

| IC50 [1] [nM] | IC50 [2] [nM] | Structure (SMILES) |
| --- | --- | --- |
| < 200 | < 200 | CCn1nc(Oc2ccc(C(F)(F)F)cc2)cc1-c1cccc(C(C)(C)NS(=O)(=O)NC2CCC2)c1 [Example 16, N-cyclobutyl-N′-[1-(3-{1-ethyl-3-[4-(trifluoromethyl)phenoxy]-1H-pyrazol-5-yl}phenyl)-1-methylethyl]sulfamide] |
| < 200 | < 200 | CCn1nc(-c2cccc(C(C)(C)NS(=O)(=O)CC(F)(F)F)c2)cc1Oc1ccc(C(=O)NCC2CCCO2)cc1 (stereo not drawn) [Example 74, 4-({1-ethyl-3-[3-(1-methyl-1-{[(2,2,2-trifluoroethyl)sulfonyl]amino}ethyl)phenyl]-1H-pyrazol-5-yl}oxy)-N-(tetrahydrofuran-2-ylmethyl)benzamide] |
| < 200 | < 200 | CCn1nc(-c2cccc(C(C)(C)NS(=O)(=O)C3CC3)c2)cc1Oc1ccc(C(F)(F)F)cc1 [Example 12, N-[1-(3-{1-ethyl-5-[4-(trifluoromethyl)phenoxy]-1H-pyrazol-3-yl}phenyl)-1-methylethyl] cyclopropanesulfonamide] |
| < 200 | < 200 | CCCNS(=O)(=O)NC1Cc2ccc(-c3cc(Oc4ccc(C(F)(F)F)cc4)nn3CC)cc2C1 (stereo not drawn) [Example 123, N-(5-{1-ethyl-3-[4-(trifluoromethyl)phenoxy]-1H-pyrazol-5-yl}-2,3-dihydro-1H-inden-2-yl)-N′-propylsulfamide] |
| < 200 | < 200 | CNC(=O)Cn1nc(-c2cccc(C3(NS(=O)(=O)CC(F)(F)F)COC3)c2)cc1Oc1ccc(C(F)(F)F)cc1 [Example 132, 2-[5-(4-trifluoromethylphenoxy)-3-(3-{3-[(2,2,2-trifluoroethylsulfonyl)amino]oxetan-3-yl}phenyl)-1H-pyrazol-1-yl]-N-methylacetamide] |
| < 200 | < 200 | CCn1nc(-c2cccc(C(C)(C)NS(=O)(=O)CC(F)(F)F)c2)cc1Oc1ccc(C)cc1 [Example 59, N-(1-{3-[1-ethyl-5-(4-methylphenoxy)-1H-pyrazol-3-yl]phenyl}-1-methylethyl)-2,2,2-trifluoroethanesulfonamide] |

The remaining lines, values behind:

| Structure (SMILES) | IC50 [1] [nM] | IC50 [2] [nM] |
| --- | --- | --- |
| O=S(=O)(CC(F)(F)F)NC1(c2cccc(-c3cc(Oc4ccc(C(F)(F)F)cc4)n(CC4CCCCO4)n3)c2)COC1 (stereo not drawn) [Example 140] | < 200 | < 200 |
| CCn1nc(Oc2ccc(C(F)(F)F)cc2)cc1-c1cccc(C2(NS(=O)(=O)NCC3CCC3)COC2)c1 [Example 103] | < 200 | < 200 |
| CCn1nc(-c2cccc(C3(NS(=O)(=O)NCC(F)(F)F)CC3)c2)cc1Oc1ccc(C(F)(F)F)cc1 [Example 36, N-[1-(3-{1-ethyl-5-[4-(trifluoromethyl)phenoxy]-1H-pyrazol-3-yl}phenyl)cyclopropyl]-N′-(2,2,2-trifluoroethyl)sulfamide] | < 200 | < 200 |
| CCn1nc(-c2cccc(C(C)(C)NS(=O)(=O)CC(F)(F)F)c2)cc1Oc1ccccc1F [Example 7, N-(1-{3-[1-ethyl-5-(2-fluorophenoxy)-1H-pyrazol-3-yl]phenyl}-1-methylethyl)-2,2,2-trifluoroethanesulfonamide] | < 200 | < 200 |
| CC(C)(NS(=O)(=O)CC(F)(F)F)c1cccc(-c2cc(Oc3ccc(C(F)(F)F)cc3)n(CCO)n2)c1 [Example 105, 2,2,2-trifluoro-N-[1-(3-{1-(2-hydroxyethyl)-5-[4-(trifluoromethyl)phenoxy]-1H-pyrazol-3-yl}phenyl)-1-methylethyl]ethanesulfonamide] | < 200 | < 200 |
| CCn1nc(-c2cccc(C(C)(C)NS(=O)(=O)CC(F)(F)F)c2)cc1Oc1ccc(C(C)(C)O)cc1 [Example 70, N-[1-(3-{1-ethyl-5-[4-(1-hydroxy-1-methylethyl)phenoxy]-1H-pyrazol-3-yl}phenyl)-1-methylethyl]-2,2,2-trifluoroethanesulfonamide] | < 200 | < 200 |
